Data set [1] deals with skin. As to conditions: topical use of 4% HQ or 5% Vitamin C; cited from earlier work.
Data set [2] in a line: Solubility in non-aqueous skin-compatible solvents. As to conditions: neat solvent.
Data set [3] deals with skin. As to conditions: cream containing 10% MAP; cited from earlier work.
In data set [4] the test system is skin. As to conditions: topical; cited from earlier work.
Data set [5] relates to skin. The conditions noted are these: concentrations of 0.2%; clinical data from SEPPIC; cited from earlier work.

Some results are limits rather than exact numbers.

Take `O=C1O[C@H]([C@@H](O)CO)C(O)=C1O` [AA, L-ascorbic acid]: in the data set with skin [1], the improvement is reported as 62.5%.

For the compound `CO[C@H]1CO[C@H]2[C@@H]1OC[C@H]2OC` [Dimethyl isosorbide], the “ability of the solvent to solubilize ascorbic acid” value in data set [2] was “very limited”. Turning to `Oc1ccc(O)cc1` [HQ, hydroquinone], in the data set on skin [1], the improvement is 93% and the side-effects is on record as 68.7%.

For `O=C1O[C@H]([C@@H](O)CO)C([O-])=C1OP(=O)([O-])[O-].O=C1O[C@H]([C@@H](O)CO)C([O-])=C1OP(=O)([O-])[O-].[Mg+2].[Mg+2].[Mg+2]` [MAP, magnesium ascorbyl phosphate], the “brighten/lighten the appearance of the skin” value with skin [3] is “effectively brighten/lighten”.

Turning to `CC(C)(CO)[C@@H](O)C(=O)NCCCO` [Panthenol], in the data set on skin [4], the “concentration at which inhibition of transepidermal water loss is apparent” value is no less than 1%. For madecassoside, in the data set with skin [5], the “ability to reduce erythema (skin redness)” value is given as “desirable ability to reduce erythema”.

The record behind these values is US12064503B2, “High-potency vitamin C and sugar alcohol topical formulations” (ICB (an ABC), LLC, priority 2020, dated 2024).
